In patent US20070142433A1, “Angiogenesis-affecting compounds and methods of use thereof” (priority 2004, published 2007):
Where a name gives a salt, the structure may show the parent alone.

Tests used:
HUVEC sprouting = assay: Primary angiogenesis screen, HUVEC spheroid evaluation (EC sprouting); format: cell-based, human; conditions: HUVEC spheroids in collagen gel, VEGF-supplemented, 24 hours
Protocol: A test substance was selected for evaluation in angiogenesis screens. The test substance was synthesized or obtained as appropriate and stored at −20° C. in DMSO. Prior to use, the test substance was thawed and 5 mM of the substance was diluted to a 10 fold concentrated working solution (100 μM) in endothelial cell basal medium. The basal medium fraction was supplemented with 25 ng VEGF/100 μl for the stimulation of HUVEC sprouting.
The screening procedures were modified versions of those described by Korff and Augustin (J Cell Sci 112: 3249-58, 1999). By way of summary, spheroids were prepared by pipetting 400 human umbilical vein endothelial cells (HUVEC) into each well of nonadhesive 96-well plates. Prior to use the HUVEC were cultured according to the supplier's instructions (PromoCell, Heidelberg, Germany). The cells were allowed to aggregate overnight into spheroids (Korff and Augustin: J Cell Biol 143: 1341-52, 1998). After aggregation, 48 HUVEC spheriods were harvested. Each harvested spheroid was seeded in 900 μl of methocel-collagen solution and pipetted into an individual well of a 24-well plate to allow collagen gel polymerization.
Thirty (30) minutes after seeding, the test substance was added. The working dilution (10 fold concentration) was utilized, 100 μl was pipetted on top of the polymerized collagen gel in each well. The plates were then incubated at 37° C. for 24 hours. At the end of the incubation period the plates were fixed by adding 1 ml paraformaldehyde (10%) to each well.
The HUVEC spheriods were microscopically assayed for endothelial cell (EC) sprouting intensity. The degree of EC sprouting was classified into one of four groups by comparing the degree of sprouting to that observed in VEGF control cells. […] For exemplary results, see FIG. 1.

SMC = assay: Cytoviability assay (resazurin), SMC; format: cell-based; conditions: 24 hours after treatment, read-out: IC50 cell viability SMC
Protocol: (§1) A cell viability assay based on cellular reduction of resazurin to the fluorescent product resorufin was performed. Viable cells can metabolize and reduce the dye, whereas dead cells rapidly lose the capacity to do so, making the increase in fluorescence directly proportional to the number of viable cells. The tested compounds were added in a log2 titration and viable cells were analyzed 24 hours after treatment. The fluorescence was determined at an excitation wavelength of 560 nm and an emission wavelength of 590 nm. The percentage of viable cells in relation to the untreated control proliferation was calculated. […] Perhexiline results are depicted graphically in FIGS. 6A-6C and Erythromycin results in FIGS. 7A-7C.

Fibroblast = assay: Cytoviability assay (resazurin), Fibroblast; format: cell-based; conditions: 24 hours after treatment, read-out: IC50 cell viability Fibroblast
Protocol: as §1

RENCA = assay: Cytoviability assay (resazurin), RENCA; format: cell-based; conditions: 24 hours after treatment, read-out: IC50 cell viability RENCA
Protocol: as §1

[1] = tested on: Alexander cells (PLC/PRF/5) subcutaneous tumor; assay: Hepato-Cellular Carcinoma Model (HCC) in vivo study, subcutaneous Alexander cells; parameters: species or system NMRI nu/nu mice
Protocol: Monolayers of Alexander cells can be grown in 85% Dulbecco's Modified Eagle's Medium (DMEM), 15% Fetal Bovine Serum (FBS), 4 mM L-glutamine, 100 units penicillinG/ml, and 100 μg of streptomycin-sulfate/ml. The cells can be cultured in a humidified atmosphere of 90% air and 10% carbon dioxide at 37° C. Media may preferably be changed every 4 days.
Six to eight week old female NMRI^−nu/nu mice could be utilized. The Alexander cells can be implanted in the left flank region of the mice, for example, by injecting 4×10^7 cells in 0.2 ml aliquots into the subcutaneous space of the left flank using a 29 G needle syringe. After inoculation the appearing subcutaneous tumours can be measured by callipering and multiplying the distances of all three dimensions.
Therapy can be initiated after the tumor size has reached a volume of approximately 100 mm^3 (day 1 of the study), and continue for about 21 days.
As shown, Group 1 would serve as control, where the animals would receive no further treatment after injection of Alexander cells.
After approximately 21 days of treatment, mice could be sacrificed and tumors collected and optionally stored appropriately at −80° C. For histological examination of the tumor vasculature, cryosections of the tissues (thickness of 5-10 μm) can be taken. For visualization of the blood vessels, immunohistochemical staining for CD 31 (PECAM-1) can be performed, and vessels counted microscopically using a defined magnification (×200).

C1CCC(C(CC2CCCCN2)C2CCCCC2)CC1 (stereo not drawn) [Perhexiline, Perhexiline maleate]
EC sprouting intensity compared with VEGF control (HUVEC sprouting): sprouting inhibition | IC50 (SMC): 32 µM | IC50 (Fibroblast): 5.2 µM | IC50 (RENCA): 5 µM | tumor growth compared to control ([1]; subcutaneous Alexander cell tumors in mice, about 21 days of treatment, FIGS. 28-30): reduced | vessel density ([1]; tumor vasculature, FIG. 36): significant effect on vessel density
